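A five-concentration, 48-hour dose response in 96-well plates underlies each endpoint, interpolated linearly between surrounding concentrations. GI50: concentration for 50% inhibition of growth.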 The source made the active and inactive calls. No stated cut-off is given here; in the data, active = GI50 up to about 1.1 µM and inactive = higher.
How the values were obtained:
Assay in all cases: growth of human tumour cells (NCI), 48 h
[1] = test system: SW-620
[2] = test system: MOLT-4
[3] = test system: NCI-H226
[4] = test system: OVCAR-5
[5] = test system: K562
[6] = test system: RXF 393
[7] = test system: TK-10
[8] = test system: UO-31
[9] = test system: NCI-H460
[10] = test system: A549
[11] = test system: UACC-257
[12] = test system: COLO 205
[13] = test system: M14
[14] = test system: HCT-116
[15] = test system: SK-MEL-2
[16] = test system: KM12
[17] = test system: PC-3
[18] = test system: ACHN
[19] = test system: MCF7
[20] = test system: SR
[21] = test system: HT-29
[22] = test system: IGROV-1
[23] = test system: 786-0
[24] = test system: HOP-62
[25] = test system: Hs-578T
[26] = test system: OVCAR-8
[27] = test system: OVCAR-4
[28] = test system: BT-549
[29] = test system: T47D
[30] = test system: SN12C
[31] = test system: EKVX
[32] = test system: U-251
[33] = test system: UACC-62
[34] = test system: SF-539
[35] = test system: SNB-19
[36] = test system: HOP-92
[37] = test system: NCI/ADR-RES
[38] = test system: HL-60
[39] = test system: OVCAR-3
[40] = test system: LOX IMVI
[41] = test system: HCT-15
[42] = test system: CAKI-1
[43] = test system: MDA-MB-435
[44] = test system: SK-MEL-28
[45] = test system: SNB-75
[46] = test system: DU-145
[47] = test system: NCI-H522
[48] = test system: CCRF-CEM
[49] = test system: SF-268
[50] = test system: NCI-H23
[51] = test system: Malme-3M
[52] = test system: SF-295
[53] = test system: SK-OV-3
[54] = test system: SK-MEL-5
[55] = test system: MDA-MB-231
[56] = test system: A498
[57] = test system: RPMI-8226
[58] = test system: HCC 2998

**Q.** What does the source list for `O=C(CSCC(=O)N/N=C\c1cc(Cl)cc(Cl)c1O)N/N=C\c1cc(Cl)cc(Cl)c1O`?
**A.** GI50 [1]: 3.79 µM (inactive); GI50 [2]: 1.63 µM (inactive); GI50 [3]: 3.62 µM (inactive); GI50 [4]: 10.4 µM (inactive); GI50 [5]: 2.37 µM (inactive); GI50 [6]: 20.5 µM (inactive); GI50 [7]: 3.63 µM (inactive); GI50 [8]: 4 µM (inactive); GI50 [9]: 14.9 µM (inactive); GI50 [10]: 18.7 µM (inactive); GI50 [11]: 5.28 µM (inactive); GI50 [12]: 6.1 µM (inactive); GI50 [13]: 4.93 µM (inactive); GI50 [14]: 2.9 µM (inactive); GI50 [15]: 2.51 µM (inactive); GI50 [16]: 6.1 µM (inactive); GI50 [17]: 4.27 µM (inactive); GI50 [18]: 0.204 µM (active); GI50 [19]: 7.29 µM (inactive); GI50 [20]: 1.77 µM (inactive); GI50 [21]: 10.5 µM (inactive); GI50 [22]: 3.37 µM (inactive); GI50 [23]: 6.46 µM (inactive); GI50 [24]: 5.69 µM (inactive); GI50 [25]: 2.08 µM (inactive); GI50 [26]: 2.1 µM (inactive); GI50 [27]: 2.42 µM (inactive); GI50 [28]: 4.81 µM (inactive); GI50 [29]: 3.08 µM (inactive); GI50 [30]: 4.33 µM (inactive); GI50 [31]: 4.45 µM (inactive); GI50 [32]: 0.515 µM (active); GI50 [33]: 3.64 µM (inactive); GI50 [34]: 2.58 µM (inactive); GI50 [35]: 16.7 µM (inactive); GI50 [36]: 5.73 µM (inactive); GI50 [37]: 2.96 µM (inactive); GI50 [38]: 2.75 µM (inactive); GI50 [39]: 1.69 µM (inactive); GI50 [40]: 1.38 µM (inactive); GI50 [41]: 2.99 µM; GI50 [42]: 3.48 µM (inactive); GI50 [43]: 8.04 µM (inactive); GI50 [44]: 5.21 µM (inactive); GI50 [45]: 12.4 µM (inactive); GI50 [46]: 8.91 µM (inactive); GI50 [47]: 1.71 µM (inactive); GI50 [48]: 0.294 µM (active); GI50 [49]: 2.32 µM (inactive); GI50 [50]: 10.1 µM (inactive); GI50 [51]: 1.87 µM (inactive); GI50 [52]: 6.53 µM (inactive); GI50 [53]: 8.55 µM (inactive); GI50 [54]: 3.42 µM (inactive); GI50 [55]: 2.48 µM (inactive)

**Q.** For `COc1c2c(c(CC=C(C)C)c3oc(=O)c(-c4ccc(O)cc4)c(O)c13)OC(C)(C)C=C2` [LONCHOCARPIC ACID], which GI50 [1] is on record?
**A.** Its GI50 is 44.1 µM (inactive).

**Q.** And the GI50 [2]?
**A.** Its GI50 is 24.9 µM (inactive).

**Q.** What about the GI50 [3] of the same compound?
**A.** Its GI50 is 21.5 µM (inactive).

**Q.** What about the GI50 [4] of the same compound?
**A.** Its GI50 is 42.9 µM (inactive).

**Q.** And the GI50 [5]?
**A.** Its GI50 is 29.5 µM (inactive).

**Q.** And the GI50 [6]?
**A.** Its GI50 is 1.41 µM (inactive).

**Q.** And the GI50 [7]?
**A.** The GI50 was 32.4 µM (inactive).

**Q.** What about the GI50 [8] of the same compound?
**A.** Its GI50 is 27.8 µM (inactive).

**Q.** And the GI50 [9]?
**A.** Its GI50 is 24 µM (inactive).

**Q.** And the GI50 [10]?
**A.** The GI50 was 19.1 µM (inactive).

**Q.** And the GI50 [11]?
**A.** Its GI50 is 27.7 µM (inactive).

**Q.** And the GI50 [12]?
**A.** Its GI50 is 23.4 µM (inactive).

**Q.** And the GI50 [13]?
**A.** Its GI50 is 25.8 µM (inactive).

**Q.** And the GI50 [14]?
**A.** Its GI50 is 15.7 µM (inactive).

**Q.** And the GI50 [15]?
**A.** Its GI50 is 19.6 µM (inactive).

**Q.** And the GI50 [16]?
**A.** Its GI50 is 14.4 µM (inactive).

**Q.** What about the GI50 [17] of the same compound?
**A.** The GI50 was 31.5 µM (inactive).

**Q.** And the GI50 [18]?
**A.** Its GI50 is 22.1 µM (inactive).

**Q.** What about the GI50 [19] of the same compound?
**A.** The GI50 was 16.8 µM (inactive).

**Q.** What about the GI50 [20] of the same compound?
**A.** Its GI50 is 18.5 µM (inactive).

**Q.** What about the GI50 [21] of the same compound?
**A.** Its GI50 is 30 µM (inactive).

**Q.** And the GI50 [22]?
**A.** Its GI50 is 18.4 µM (inactive).

**Q.** What about the GI50 [56] of the same compound?
**A.** The GI50 was 31.8 µM (inactive).

**Q.** And the GI50 [23]?
**A.** The GI50 was 25.5 µM (inactive).

**Q.** What about the GI50 [24] of the same compound?
**A.** The GI50 was 23.4 µM (inactive).

**Q.** And the GI50 [25]?
**A.** The GI50 was 36.2 µM (inactive).

**Q.** And the GI50 [26]?
**A.** Its GI50 is 29 µM (inactive).

**Q.** And the GI50 [27]?
**A.** Its GI50 is 17.7 µM (inactive).

**Q.** And the GI50 [28]?
**A.** Its GI50 is 41.8 µM (inactive).

**Q.** And the GI50 [29]?
**A.** The GI50 was 14.3 µM (inactive).

**Q.** What about the GI50 [30] of the same compound?
**A.** The GI50 was 27.5 µM (inactive).

**Q.** And the GI50 [31]?
**A.** The GI50 was 22.3 µM (inactive).

**Q.** And the GI50 [32]?
**A.** Its GI50 is 8.26 µM (inactive).

**Q.** What about the GI50 [33] of the same compound?
**A.** The GI50 was 21.2 µM (inactive).

**Q.** And the GI50 [34]?
**A.** Its GI50 is 15.1 µM (inactive).

**Q.** What about the GI50 [35] of the same compound?
**A.** The GI50 was 29.5 µM (inactive).

**Q.** And the GI50 [57]?
**A.** The GI50 was 19.5 µM (inactive).

**Q.** What about the GI50 [36] of the same compound?
**A.** Its GI50 is 27.2 µM (inactive).

**Q.** And the GI50 [37]?
**A.** Its GI50 is 28.7 µM (inactive).

**Q.** And the GI50 [58]?
**A.** Its GI50 is 20.8 µM (inactive).

**Q.** What about the GI50 [38] of the same compound?
**A.** Its GI50 is 21.2 µM (inactive).

**Q.** And the GI50 [39]?
**A.** The GI50 was 15.7 µM (inactive).

**Q.** And the GI50 [40]?
**A.** The GI50 was 34.4 µM (inactive).

**Q.** What about the GI50 [41] of the same compound?
**A.** The GI50 was 11.9 µM.

**Q.** And the GI50 [42]?
**A.** The GI50 was 40.6 µM (inactive).

**Q.** What about the GI50 [43] of the same compound?
**A.** The GI50 was 15.2 µM (inactive).

**Q.** And the GI50 [44]?
**A.** The GI50 was 25.9 µM (inactive).

**Q.** What about the GI50 [46] of the same compound?
**A.** Its GI50 is 38.1 µM (inactive).

**Q.** What about the GI50 [47] of the same compound?
**A.** Its GI50 is 23 µM (inactive).

**Q.** What about the GI50 [48] of the same compound?
**A.** Its GI50 is 23.7 µM (inactive).

**Q.** And the GI50 [49]?
**A.** Its GI50 is 14.1 µM (inactive).

**Q.** What about the GI50 [50] of the same compound?
**A.** The GI50 was 43.9 µM (inactive).

**Q.** And the GI50 [51]?
**A.** The GI50 was 30.8 µM (inactive).

**Q.** And the GI50 [52]?
**A.** The GI50 was 28.2 µM (inactive).

**Q.** What about the GI50 [54] of the same compound?
**A.** The GI50 was 12.8 µM (inactive).

**Q.** What about the GI50 [55] of the same compound?
**A.** Its GI50 is 24.8 µM (inactive).

Source: ChEMBL document CHEMBL1201862, “PubChem BioAssay data set” (2004)
